# Measurements as given in the NIST ThermoML archive (doi:10.1021/acs.jced.6b00043).
# Conditions: 1008.1 K; Crystal; Closed cell (Static) method
smiles,measurement,value
O=C([O-])[O-].[Li+].[Li+] [lithium carbonate],vapor or sublimation pressure,1.552 kPa
